Laboratory results taken from article PMC8228075, “In Vitro and In Silico Characterization of G-Protein Coupled Receptor (GPCR) Targets of Phlorofucofuroeckol-A and Dieckol” (Marine Drugs, 2021).
Several values for one entry are separate records, joined by “and”; a condition that tells them apart may be missing. Identical values can stand only once. Like-named read-outs stand apart in the source and are kept apart here. Marks after values point to notes of the source that are not given here.

Tests used:
h5-HT1BR = h5-HT1BR (Homo sapiens, UniProt P28222); assay: h5-HT1BR functional antagonist assay (cAMP, HTRF, Hela cells); format: cell-based; settings: HeLa, read-out: Antagonist Effect
Description: (§1) The in-house assay protocol and experimental conditions are reported in our previous reports. The functional effect of dieckol and PFF-A was characterized based on their modulation effect on cytosolic Ca^2+ ion mobilization using a fluorimetric detection method or by measuring their effect on cAMP modulation using homogeneous time-resolved fluorescence (HTRF) detection.
Functional activity of phlorotannins over hA2AR, hα2CAR, hCB1R, GLP-1R, and h5-HT1BR was determined by measuring their effects on cAMP production by the HTRF detection method using transected cells expressing human cloned receptors.
Concisely, a plasmid containing the GPCR gene of interest (5-HT1B) was transfected into Hela cells. The resulting stable transfectants were suspended in HBSS buffer (Invitrogen, Carlsbad, CA, USA) containing 20 mM HEPES (pH 7.4), […], 1 mg/mL glucose, and 500 μM IBMX and distributed in microplates at a density of 2 × 10^4 cells/well. […] Then, the cells were lysed and a fluorescence acceptor (D2-labeled cAMP) and fluorescence donor (anti-cAMP antibody with europium cryptate) were added following 60 min incubation at RT.

[1] = molecular target: T1, Vasopressin 1A receptor (hV1AR) (Homo sapiens, UniProt P37288); assay: hV1AR functional agonist assay (Ca2+ mobilization, CHO-V1AR cells); format: cell-based; settings: for Agonist Effect: % of control response to 1 µM AVP
T1 construct: host or cells: CHO-V1AR cells
Excerpt: as §1
Then, fluorescent probe (Fluo4, Invitrogen) mixed with probenecid in HBSS buffer (Invitrogen, Carlsbad, CA, USA) supplemented with 20 mM HEPES, pH 7.4 (Invitrogen) was added to each well, allowing to equilibrate with the cells for 60 min at 37 °C, then 15 min at 22 °C.

[2] = molecular target: T1, Vasopressin 1A receptor (hV1AR); design: method as in PMID 31238535; settings: 100 µM, % of control response to 1 µM AVP, value extracted from previous study ref 22, cited from earlier work

Chain of h5-HT1BR (P28222 whole entry): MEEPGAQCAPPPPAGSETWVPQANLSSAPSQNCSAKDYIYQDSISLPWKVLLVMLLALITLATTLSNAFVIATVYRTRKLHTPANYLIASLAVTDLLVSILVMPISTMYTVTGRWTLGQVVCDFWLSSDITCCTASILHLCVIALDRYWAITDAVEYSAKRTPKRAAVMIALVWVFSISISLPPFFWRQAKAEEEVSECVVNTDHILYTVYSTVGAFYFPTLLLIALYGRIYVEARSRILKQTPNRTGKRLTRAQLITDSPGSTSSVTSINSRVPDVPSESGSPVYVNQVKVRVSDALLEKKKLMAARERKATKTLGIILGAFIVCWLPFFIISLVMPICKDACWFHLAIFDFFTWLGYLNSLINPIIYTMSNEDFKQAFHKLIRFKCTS
T1 sequence (P37288 whole entry): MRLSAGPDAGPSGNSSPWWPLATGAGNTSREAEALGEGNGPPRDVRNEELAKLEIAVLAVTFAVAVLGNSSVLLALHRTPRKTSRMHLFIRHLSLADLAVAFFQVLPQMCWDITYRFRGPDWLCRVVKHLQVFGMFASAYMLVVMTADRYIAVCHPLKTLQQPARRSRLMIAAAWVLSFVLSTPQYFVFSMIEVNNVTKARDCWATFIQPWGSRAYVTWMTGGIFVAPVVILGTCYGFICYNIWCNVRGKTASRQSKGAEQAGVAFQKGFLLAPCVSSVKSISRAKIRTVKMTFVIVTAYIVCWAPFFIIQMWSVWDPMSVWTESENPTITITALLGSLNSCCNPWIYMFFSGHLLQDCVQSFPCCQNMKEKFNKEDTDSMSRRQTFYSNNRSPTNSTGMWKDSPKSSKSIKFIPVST

Compound	inhibition at 100 µM (h5-HT1BR)	inhibition at 200 µM (h5-HT1BR)	Agonist Effect ([1]; 50 µM)	Agonist Effect ([1]; 100 µM)	Agonist Effect ([1]; 150 µM)	EC50 ([1]; agonist effect, mean ± SD, n = 3)	Agonist Effect [2]	Agonist Effect ([2]; listed as Phlorofucofuroeckol-A)
Oc1cc(O)cc(Oc2c(O)cc(O)c3c2Oc2c(O)cc(Oc4c(O)cc(Oc5c(O)cc(O)c6c5Oc5c(O)cc(O)cc5O6)cc4O)cc2O3)c1 [Dieckol, dieckol]	-7.3 ± 3.96%	-8.1 ± 0.85%	50.40 ± 0.42%	106.73 ± 2.97%	118.1 ± 2.83%	39.1 ± 2.12 µM		
Oc1cc(O)cc(Oc2c(O)cc(O)c3c2Oc2c(O)cc4oc5c(Oc6cc(O)cc(O)c6)c(O)cc(O)c5c4c2O3)c1 [PFF-A, phlorofucofuroeckol-A]	-18.5 ± 2.69%	-35.5 ± 4.38%					38.45 ± 7.14% and 38.45 ± 7.14 ^c %	38.45 ± 7.14 ^a %
